Results reported in article PMC4965013, “Open Source Drug Discovery with the Malaria Box Compound Collection for Neglected Diseases and Beyond” (PLoS Pathogens, 2016).

Tests used:
[1] = tested on: P. falciparum 3D7 trophozoites; test: Metabolomic fingerprint profiling LC-MS; format: cell-based, Plasmodium falciparum; parameters: UDP-D-glucose / ADP-D-glucose: unit not given here; details: for Acetyllysine / N-acetyl-L-ornithine / N-carbamoyl-L-aspartate / NADPH / dAMP / dCMP / dTDP / dTMP / dTTP / dihydroorotate / orotate / DLH / DLS/SDL/SID / PD / PEE / PVNF / 3-phosphoglycerate / ADP-D-glucose / ATP / CDP / D-sedoheptulose-1/7-phosphate / FAD / GMP / NAD+ / NADP+ / Octoluse Bisphosphate / Pyroglutamic acid / UDP-D-glucose / UDP-D-glucuronate / UDP-N-acetyl-glucosamine / UDP / UMP / UTP / a-ketoglutarate / citrate/isocitrate / cytidine / dATP / dGMP/AMP / fumarate / glucose-1/6-phosphate / glycerate / guanine / guanosine / hypoxanthine / indole / inosine / nicotinate / ornithine / phosphoenolpyruvate / pyruvate / ribose-phosphate / sarcosine/alanine / sn-glycerol-3-phosphate / succinate/methylmalonic acid / uridine / xanthosine: S2 Table Metabolomics; for Acetyllysine: metabolite Acetyllysine; for N-acetyl-L-ornithine: metabolite N-acetyl-L-ornithine; for N-carbamoyl-L-aspartate: metabolite N-carbamoyl-L-aspartate; for NADPH: metabolite NADPH; for dAMP: metabolite dAMP; for dCMP: metabolite dCMP; for dTDP: metabolite dTDP; for dTMP: metabolite dTMP; for dTTP: metabolite dTTP; for dihydroorotate: metabolite dihydroorotate; for orotate: metabolite orotate; for DLH: peptide DLH; for DLS/SDL/SID: peptide DLS/SDL/SID; for PD: peptide PD; for PEE: peptide PEE; for PVNF: peptide PVNF; for 3-phosphoglycerate: metabolite 3-phosphoglycerate; for ADP-D-glucose: metabolite ADP-D-glucose; for ATP: metabolite ATP; for CDP: metabolite CDP; for CDP / D-sedoheptulose-1/7-phosphate / GMP / Octoluse Bisphosphate / UDP / UMP / UTP / citrate/isocitrate / dGMP/AMP / fumarate / glucose-1/6-phosphate / glycerate / guanine / guanosine / inosine / pyruvate / sarcosine/alanine / succinate/methylmalonic acid / uridine / xanthosine: change in metabolite level after compound treatment; for D-sedoheptulose-1/7-phosphate: metabolite D-sedoheptulose-1/7-phosphate; for FAD: metabolite FAD; for GMP: metabolite GMP; for NAD+: metabolite NAD+; for NADP+: metabolite NADP+; for Octoluse Bisphosphate: metabolite Octoluse Bisphosphate; for Pyroglutamic acid: metabolite Pyroglutamic acid; for UDP-D-glucose: metabolite UDP-D-glucose; for UDP-D-glucuronate: metabolite UDP-D-glucuronate; for UDP-N-acetyl-glucosamine: metabolite UDP-N-acetyl-glucosamine; for UDP: metabolite UDP; for UMP: metabolite UMP; for UTP: metabolite UTP; for a-ketoglutarate: metabolite a-ketoglutarate; for citrate/isocitrate: metabolite citrate/isocitrate; for cytidine: metabolite cytidine; for dATP: metabolite dATP; for dGMP/AMP: metabolite dGMP/AMP; for fumarate: metabolite fumarate; for glucose-1/6-phosphate: metabolite glucose-1/6-phosphate; for glycerate: metabolite glycerate; for guanine: metabolite guanine; for guanosine: metabolite guanosine; for hypoxanthine: metabolite hypoxanthine; for indole: metabolite indole; for inosine: metabolite inosine; for 2_3-Diphosphoglyceric acid / 4-phosphopantothenate / 6-phospho-D-gluconate / FMN / IMP / Pyrophosphate / Sedoheptoluse bisphosphate / cyclic-AMP / glutathione disulfide / lactate / myo-inositol: metabolite level change after treatment; for nicotinate: metabolite nicotinate; for ornithine: metabolite ornithine; for phosphoenolpyruvate: metabolite phosphoenolpyruvate; for pyruvate: metabolite pyruvate; for ribose-phosphate: metabolite ribose-phosphate; for sarcosine/alanine: metabolite sarcosine/alanine; for sn-glycerol-3-phosphate: metabolite sn-glycerol-3-phosphate; for succinate/methylmalonic acid: metabolite succinate/methylmalonic acid; for uridine: metabolite uridine; for xanthosine: metabolite xanthosine
[2] = tested on: P. falciparum; test: EC50 listed in S2 Table Metabolomics (used to set the concentration tested); format: cell-based; details: Plasmodium falciparum; EC50 used for Factor_XEC50 in metabolomics; read-out: EC50_nM

Work on OC(CNC1CCCCC1)Cn1c2ccccc2c2ccccc21 (stereo not drawn) [MMV009063] yielded an Acetyllysine [1] of -0.9697, a N-acetyl-L-ornithine [1] of -0.4154 and a N-carbamoyl-L-aspartate [1] of -0.3154. The NADPH [1] was 0.37, the dAMP [1] was 0.9178 and the dCMP [1] was 4.938. It also gave a dTDP [1] of 0.7098, a dTMP [1] of 0.6703 and a dTTP [1] of 1.896. For the same compound, the dihydroorotate [1] was -0.3265, the orotate [1] was -0.5164 and the DLH [1] was -0.8674. The DLS/SDL/SID [1] was -0.2423, the PD [1] was -0.8841 and the PEE [1] was -0.7244. It also gave a PVNF [1] of -0.6115, a 3-phosphoglycerate [1] of 0.9312 and an ADP-D-glucose [1] of 0.2307. For the same compound, the ATP [1] was 0.3671, the CDP [1] was 0.5148 and the D-sedoheptulose-1/7-phosphate [1] was -0.5559. For the same compound, the FAD [1] was 0.5708, the GMP [1] was 0.12 and the “NAD+” value [1] was -0.1605. For the same compound, the “NADP+” value [1] was 0.3102, the “Octoluse Bisphosphate” value [1] was 0.2421 and the Pyroglutamic acid [1] was 0.1616. The UDP-D-glucose [1] was 0.2936, the UDP-D-glucuronate [1] was 0.2553 and the UDP-N-acetyl-glucosamine [1] was 0.3811. The UDP [1] was 0.491, the UMP [1] was 0.4628 and the UTP [1] was 0.409. The a-ketoglutarate [1] was -0.1494, the citrate/isocitrate [1] was 0.2484 and the cytidine [1] was 0.7064. It also gave a dATP [1] of 0.1129, a dGMP/AMP [1] of 0.3842 and a fumarate [1] of -0.3431. The glucose-1/6-phosphate [1] was 1.039, the glycerate [1] was 0.4301 and the guanine [1] was 0.4492. For the same compound, the guanosine [1] was 0.3938, the hypoxanthine [1] was 0.2685 and the indole [1] was -0.01895. The inosine [1] was 0.305, the 2_3-Diphosphoglyceric acid [1] was 0.9003 and the 4-phosphopantothenate [1] was 0.6116. For the same compound, the 6-phospho-D-gluconate [1] was 0.5165, the FMN [1] was 0.5888 and the IMP [1] was 0.4443. The Pyrophosphate [1] was -0.0661, the Sedoheptoluse bisphosphate [1] was 0.4491 and the cyclic-AMP [1] was 0.4153. It also gave a glutathione disulfide [1] of 0.4569, a lactate [1] of 0.8013 and a myo-inositol [1] of 0.939. It also gave a nicotinate [1] of 0.31, an ornithine [1] of 0.3762 and a phosphoenolpyruvate [1] of 0.7676. It also gave a pyruvate [1] of 0.735, a ribose-phosphate [1] of 0.3548 and a sarcosine/alanine [1] of -0.09066. It also gave a sn-glycerol-3-phosphate [1] of 0.5324, a succinate/methylmalonic acid [1] of -0.07148 and a uridine [1] of 0.5909. The xanthosine [1] was -0.08621 and the EC50 [2] was 293 nM.

COc1ccc(-c2c(C)nn3c(N)c(C#N)cnc23)cc1OC [MMV396797] was tested, and the Acetyllysine [1] was -1.561, the N-acetyl-L-ornithine [1] was -1.053 and the N-carbamoyl-L-aspartate [1] was 1.252. For the same compound, the NADPH [1] was 0.3593, the dAMP [1] was 0.5405 and the dCMP [1] was 1.351. It also gave a dTDP [1] of 0.6464, a dTMP [1] of 1.055 and a dTTP [1] of 0.1329. It also gave a dihydroorotate [1] of 0.9521, an orotate [1] of -0.1403 and a DLH [1] of -2.487. It also gave a DLS/SDL/SID [1] of -1.077, a PD [1] of -0.9589 and a PEE [1] of -1.335. The PVNF [1] was -1.44, the 3-phosphoglycerate [1] was -0.332 and the ADP-D-glucose [1] was 0.000409. It also gave an ATP [1] of -0.6534, a CDP [1] of 0.6836 and a D-sedoheptulose-1/7-phosphate [1] of 0.6682. The FAD [1] was 0.02733, the GMP [1] was 0.6724 and the “NAD+” value [1] was 0.9649. For the same compound, the “NADP+” value [1] was 0.1001, the “Octoluse Bisphosphate” value [1] was -0.3618 and the Pyroglutamic acid [1] was -0.2754. The UDP-D-glucose [1] was 0.1529, the UDP-D-glucuronate [1] was 0.1151 and the UDP-N-acetyl-glucosamine [1] was 0.3642. The UDP [1] was 0.7706, the UMP [1] was 0.7638 and the UTP [1] was 0.02297. The a-ketoglutarate [1] was -0.2189, the citrate/isocitrate [1] was -0.742 and the cytidine [1] was -0.8311. It also gave a dATP [1] of -0.6595, a dGMP/AMP [1] of 0.1443 and a fumarate [1] of -0.5921. The glucose-1/6-phosphate [1] was 0.3476, the glycerate [1] was -0.7107 and the guanine [1] was -0.1249. The guanosine [1] was -0.2185, the hypoxanthine [1] was -0.6773 and the indole [1] was -0.01428. It also gave an inosine [1] of -0.2482, a 2_3-Diphosphoglyceric acid [1] of 0.4884 and a 4-phosphopantothenate [1] of 0.5554. The 6-phospho-D-gluconate [1] was 0.1152, the FMN [1] was 0.2278 and the IMP [1] was 0.7032. It also gave a Pyrophosphate [1] of 0.391, a Sedoheptoluse bisphosphate [1] of -0.2371 and a cyclic-AMP [1] of 0.5443. For the same compound, the glutathione disulfide [1] was 0.05378, the lactate [1] was -0.5978 and the myo-inositol [1] was -0.8022. For the same compound, the nicotinate [1] was 0.06441, the ornithine [1] was -0.4887 and the phosphoenolpyruvate [1] was -0.1659. The pyruvate [1] was -0.5507, the ribose-phosphate [1] was -0.3757 and the sarcosine/alanine [1] was -0.5535. For the same compound, the sn-glycerol-3-phosphate [1] was -0.1272, the succinate/methylmalonic acid [1] was -0.001406 and the uridine [1] was -0.3835. For the same compound, the xanthosine [1] was -0.6585 and the EC50 [2] was 477 nM.

COc1ccc(Br)cc1C1Nc2ccc3ccccc3c2C2=C1C(=O)CC(c1ccccc1)C2 (stereo not drawn) [MMV020885] showed an Acetyllysine [1] of -0.2018, a N-acetyl-L-ornithine [1] of 0.05879 and a N-carbamoyl-L-aspartate [1] of 0.2499. It also gave an NADPH [1] of 0.3881, a dAMP [1] of -0.07633 and a dCMP [1] of -0.1829. It also gave a dTDP [1] of -0.08159, a dTMP [1] of -0.06085 and a dTTP [1] of 0.08356. For the same compound, the dihydroorotate [1] was 0.4211, the orotate [1] was -0.07163 and the DLH [1] was 0.1131. For the same compound, the DLS/SDL/SID [1] was 0.0252, the PD [1] was -0.01204 and the PEE [1] was -0.02185. For the same compound, the PVNF [1] was 0.06588, the 3-phosphoglycerate [1] was 0.1773 and the ADP-D-glucose [1] was 0.1062. For the same compound, the ATP [1] was 0.1529, the CDP [1] was -0.1573 and the D-sedoheptulose-1/7-phosphate [1] was -0.3333. The FAD [1] was 0.09744, the GMP [1] was 0.2606 and the “NAD+” value [1] was -0.4069. The “NADP+” value [1] was 0.1167, the “Octoluse Bisphosphate” value [1] was 0.1001 and the Pyroglutamic acid [1] was 0.05012. For the same compound, the UDP-D-glucose [1] was 0.09185, the UDP-D-glucuronate [1] was 0.09622 and the UDP-N-acetyl-glucosamine [1] was 0.0596. It also gave a UDP [1] of -0.2367, a UMP [1] of 0.2791 and a UTP [1] of -0.3268. It also gave an a-ketoglutarate [1] of 0.1759, a citrate/isocitrate [1] of -0.004418 and a cytidine [1] of -0.005151. It also gave a dATP [1] of 0.1038, a dGMP/AMP [1] of -0.1164 and a fumarate [1] of 0.1396. For the same compound, the glucose-1/6-phosphate [1] was 0.3285, the glycerate [1] was 0.153 and the guanine [1] was 0.03354. It also gave a guanosine [1] of 0.1241, a hypoxanthine [1] of 0.09912 and an indole [1] of 0.3168. For the same compound, the inosine [1] was 0.1551, the 2_3-Diphosphoglyceric acid [1] was 0.06597 and the 4-phosphopantothenate [1] was 0.04165. For the same compound, the 6-phospho-D-gluconate [1] was 0.04292, the FMN [1] was 0.1362 and the IMP [1] was 0.02368. For the same compound, the Pyrophosphate [1] was 0.2656, the Sedoheptoluse bisphosphate [1] was 0.01639 and the cyclic-AMP [1] was -0.09684. For the same compound, the glutathione disulfide [1] was 0.06546, the lactate [1] was 0.1283 and the myo-inositol [1] was 0.176. It also gave a nicotinate [1] of 0.1246, an ornithine [1] of -0.2474 and a phosphoenolpyruvate [1] of 0.1975. The pyruvate [1] was 0.1649, the ribose-phosphate [1] was 0.4239 and the sarcosine/alanine [1] was -0.04603. It also gave a sn-glycerol-3-phosphate [1] of 0.03018, a succinate/methylmalonic acid [1] of 0.08193 and a uridine [1] of 0.101. It also gave a xanthosine [1] of 0.04674 and an EC50 [2] of 180 nM.
